Source: ChEMBL document CHEMBL6153035, “Natural and Semisynthetic Immunomodulatory Luakuliide Labdane Diterpenoids” (J Nat Prod, 2025)
Calls of active or inactive are those of the source. No cut-off for these calls is given here.

Key:
BMDM [1] = experiment: Antiinflammatory activity against IFN-gamma and LPS-stimulated mouse BMDM cells assessed as reduction in IL-12 production at 1 to 100 nM primed with 20 U/mL of IFN-gamma followed by 200 ng/mL of LPS stimulation in presence of compound for 48 hrs by ELISA assay; type: functional, cell-based; conditions: dose 1-100 nM
[2] = Cytotoxicity against LPS-stimulated mouse BMDM cells assessed as reduction in cellular metabolism at 1 to 100 nM incubated for 8 hrs in presence of 500 ng/mL of LPS-stimulation by MTT assay; type: toxicity, cell-based; conditions: 0.1 µM, dose 1-100 nM
[3] = Cytotoxicity against IFN-gamma/LPS-stimulated mouse BMDM cells assessed as changes in cellular metabolism at 1 to 100 nM primed with 20 U/mL of IFN-gamma followed by 200 ng/mL of LPS stimulation in presence of compound at 1 to 100 nM for 48 hrs by MTT assay; type: toxicity, cell-based; conditions: 0.1 µM, dose 1-100 nM
RAW264.7 [4] = experiment: Cytotoxicity against LPS-stimulated mouse RAW264.7 cells assessed as reduction in cellular metabolism at 10 uM incubated for 8 hrs by MTT assay; type: toxicity, cell-based; conditions: raw264.7, 8 h
[5] = Cytotoxicity against LPS-stimulated mouse BMDM cells assessed as changes in cellular metabolism at 1 to 100 nM for 8 hrs by MTT assay; type: toxicity, cell-based; conditions: 0.1 µM, dose 1-100 nM
BMDM [6] = experiment: Antiinflammatory activity against IFN-gamma and LPS-stimulated mouse BMDM cells assessed as change in NO production at 1 to 100 nM primed with 20 U/mL of IFN-gamma followed by 200 ng/mL of LPS stimulation in presence of compound for 48 hrs by […] assay; type: functional, cell-based; conditions: dose 1-100 nM
BMDM [7] = experiment: Antiinflammatory activity against IFN-gamma and LPS-stimulated mouse BMDM cells assessed as change in IL-10 secretion at 1 to 100 nM primed with 20 U/mL of IFN-gamma followed by 200 ng/mL of LPS stimulation in presence of compound for 48 hour by ELISA assay; type: functional, cell-based; conditions: dose 1-100 nM
BMDM [8] = experiment: Antiinflammatory activity against IFN-gamma and LPS-stimulated mouse BMDM cells assessed as reduction in IL-6 production at 1 to 100 nM primed with 20 U/mL of IFN-gamma followed by 200 ng/mL of LPS stimulation in presence of compound for 48 hrs by ELISA assay; type: functional, cell-based; conditions: dose 1-100 nM
RAW264.7 [9] = experiment: Antiinflammatory activity against LPS-stimulated mouse RAW264.7 cells assessed as reduction in TNF production at 1 to 1000 nM preincubated with compound for 8 hrs followed by LPS-induction and measured after 48 hrs by ELISA based assay; type: functional, cell-based; conditions: dose 1-1000 nM, time 56.0 hrs
BMDM [10] = experiment: Antiinflammatory activity against LPS-stimulated mouse BMDM cells assessed as reduction in IL-6 production at 10 to 100 nM preincubated with compound for 8 hrs followed by LPS-induction and measured after 48 hrs by ELISA assay; type: functional, cell-based; conditions: dose 10-100 nM, time 56.0 hrs
RAW264.7 [11] = experiment: Cytotoxicity against LPS-stimulated mouse RAW264.7 cells assessed as reduction in cellular metabolism at 3.2 uM incubated for 8 hrs by MTT assay; type: toxicity, cell-based; conditions: raw264.7, 8 h
BMDM [12] = experiment: Antiinflammatory activity against LPS-stimulated mouse BMDM cells assessed as induction of TNF production at 1 to 100 nM preincubated with compound for 8 hrs followed by LPS-induction and measured after 48 hrs by ELISA assay; type: functional, cell-based; conditions: dose 1-100 nM, time 56.0 hrs
BMDM [13] = experiment: Antiinflammatory activity against LPS-stimulated mouse BMDM cells assessed as reduction IL-6 production at 1 to 100 nM preincubated with compound for 8 hrs followed by LPS-induction and measured after 48 hrs by ELISA assay; type: functional, cell-based; conditions: dose 1-100 nM, time 56.0 hrs
RAW264.7 [14] = experiment: Cytotoxicity against LPS-stimulated mouse RAW264.7 cells assessed as changes in cellular metabolism at 1 to 10000 nM incubated for 8 hrs by MTT assay; type: toxicity, cell-based; conditions: raw264.7, 8 h, 10 µM, dose 1-10000 nM
BMDM [15] = experiment: Antiinflammatory activity against LPS-stimulated mouse BMDM cells assessed as reduction in TNF production preincubated with compound for 8 hrs followed by LPS-induction and measured after 48 hrs by ELISA assay; type: functional, cell-based; conditions: dose 1-100 nM, time 56.0 hrs
BMDM [16] = experiment: Antiinflammatory activity against LPS-stimulated mouse BMDM cells assessed as reduction in TNF production at 1 to 100 nM preincubated with compound for 8 hrs followed by LPS-induction and measured after 48 hrs by ELISA assay; type: functional, cell-based; conditions: dose 1-100 nM, time 56.0 hrs
BMDM [17] = experiment: Antiinflammatory activity against LPS-stimulated mouse BMDM cells assessed as reduction in IL-6 production at 1 to 100 nM preincubated with compound for 8 hrs followed by LPS-induction and measured after 48 hrs by ELISA assay; type: functional, cell-based; conditions: dose 1-100 nM, time 56.0 hrs

Row | Structure (SMILES) | Activity (BMDM [1]) | Activity [2] | Activity [3] | Activity (RAW264.7 [4]) | Activity [5] | Activity (BMDM [6]) | Activity (BMDM [7]) | Activity (BMDM [8]) | Activity (RAW264.7 [9]) | Activity (BMDM [10]) | Activity (RAW264.7 [11]) | Activity (BMDM [12]) | Activity (BMDM [13]) | Activity (RAW264.7 [14]) | Activity (BMDM [15]) | Activity (BMDM [16]) | Activity (BMDM [17])
1 | CC1=C(CCC2=CCOC2=O)[C@@]2(C=O)CCCC(C)(C)[C@@H]2CC1 | Active | Toxic | Toxic | Toxic | Non-toxic | inactive | Active | Active | inactive | Active |  |  |  |  |  |  | 
2 | CC1=C(CCc2ccoc2)[C@@]2(C=O)CCCC(C)(C)[C@@H]2CC1 | inactive | Toxic |  | Toxic | Non-toxic |  |  | inactive | inactive | Active | Toxic | Active |  |  |  |  | 
3 | CC1=CC[C@H]2C(C)(C)CCC[C@]2(C=O)[C@H]1CCc1ccoc1 | inactive | Toxic |  | Toxic | Non-toxic |  |  | inactive | inactive |  | Toxic | Active | inactive |  |  |  | 
4 | CO[C@@H]1O[C@@]2(C)CC[C@H]3C(C)(C)CCC[C@@]13[C@H]2CCC1=CCOC1=O | Active | Toxic | Toxic | Toxic | Non-toxic | inactive | Active | Active | inactive |  |  | Active |  |  |  |  | 
5 | CC1(C)CCC[C@@]23[C@H](O)O[C@@](C)(CC[C@@H]12)[C@@H]3CCc1ccoc1 |  | Toxic |  |  | Non-toxic |  |  |  | inactive |  |  | Active |  | Non-toxic |  |  | 
6 | CC(=O)O[C@@H]1O[C@@]2(C)CC[C@H]3C(C)(C)CCC[C@@]13[C@H]2CCc1ccoc1 |  |  |  | Toxic |  |  |  |  | Active |  | Toxic |  |  |  |  |  | 
7 | CC1=C(CCc2cc(Br)oc2Br)[C@@]2(C=O)CCCC(C)(C)[C@@H]2CC1 | Active |  | Toxic | Toxic | Non-toxic | inactive | Active | Active | inactive |  | Toxic |  | inactive |  | Dose-dependent-effect |  | 
8 | CC1(C)CCC[C@@]23[C@H](O)O[C@@](C)(CC[C@@H]12)[C@@H]3CCC1=CCN(CC(=O)O)C1=O |  |  |  | Toxic | Non-toxic |  |  |  | Active |  |  |  |  |  |  | Active | Active
